The target in this test is T1, Nox1 oxidase (COS-Nox1 lysate: hNox1, p22phox, NOXO1, NOXA1) (Homo sapiens, UniProt Q9Y5S8).
T1 construct: expressed in transfected cells; host or cells: COS-22 cells (COS 7 with p22phox), transiently cotransfected; cell lysate used
T1 sequence (Q9Y5S8 1-564): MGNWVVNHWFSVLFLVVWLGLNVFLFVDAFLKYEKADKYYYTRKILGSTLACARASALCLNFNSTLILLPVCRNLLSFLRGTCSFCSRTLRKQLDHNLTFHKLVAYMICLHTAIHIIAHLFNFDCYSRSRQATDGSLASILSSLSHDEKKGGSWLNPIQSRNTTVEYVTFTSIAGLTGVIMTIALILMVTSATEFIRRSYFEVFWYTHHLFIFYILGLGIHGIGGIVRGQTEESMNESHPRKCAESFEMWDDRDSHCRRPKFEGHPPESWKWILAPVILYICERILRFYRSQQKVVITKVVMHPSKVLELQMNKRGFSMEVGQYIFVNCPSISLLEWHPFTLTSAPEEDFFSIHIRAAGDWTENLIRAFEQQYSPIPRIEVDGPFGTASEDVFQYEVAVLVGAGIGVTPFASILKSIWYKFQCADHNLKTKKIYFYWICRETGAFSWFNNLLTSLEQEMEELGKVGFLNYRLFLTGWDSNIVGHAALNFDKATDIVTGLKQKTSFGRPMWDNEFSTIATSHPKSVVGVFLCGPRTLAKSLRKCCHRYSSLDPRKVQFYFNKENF
T1 sequence (P13498 2-195 partner limits assumed): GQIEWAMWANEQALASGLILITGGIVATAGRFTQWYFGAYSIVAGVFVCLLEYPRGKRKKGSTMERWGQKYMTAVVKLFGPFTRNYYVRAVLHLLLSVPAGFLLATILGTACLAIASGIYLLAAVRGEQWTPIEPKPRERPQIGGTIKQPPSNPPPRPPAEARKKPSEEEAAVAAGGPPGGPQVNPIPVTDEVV
The test can be described thus: Cell-free SOD-inhibitable cytochrome c reduction assay, O2- production in COS-Nox1 lysates. The format is biochemical. As for the experimental part:
To test this hypothesis, the inhibitory activity of Nox2ds was assessed in cell-free assays using reconstituted systems expressing either Nox1, 2 or 4 oxidase. Nox 2 oxidase was recapitulated by stably transfecting COS 7 cells with Nox2, p22phox, p47phox, and p67phox (aka COS-Nox2). Nox1 oxidase was obtained by transfecting COS 7 cells with Nox1, p22phox, NOXO1 and NOXA1 (COS-Nox1), and Nox 4 oxidase was regenerated by transfection of COS 7 cells with Nox4 and p22phox. […] Our new data support selectivity of Nox2ds peptide in differentiating the contribution of Nox2 vs. Nox1 and Nox4 NADPH oxidase and its potential clinical use in ameliorating cardiopulmonary diseases.
Cell transfection was carried out using Lipofectamine LTX and Plus reagent (Invitrogen), according to the manufacturer's instructions. COS-22 cells were transiently cotransfected with pcDNA 3.1-hNox1, pCMVsport 6-hNOXA1, and pcDNA3.1-hNoxO1 (COS-Nox1/NOXO1/NOXA1 cells). Cells were used 24 h after transfection. […]
Superoxide (O2^−) production was measured in COS-Nox1 and COS-Nox2 lysates by determining the rate of O2^− dismutase (SOD) inhibitable cytochrome c reduction and by electron paramagnetic resonance (EPR). […]
O2^− production was initiated by the addition of NADPH and measured by the SOD-inhibitable cytochrome c reduction for 10 min.

Where no end group is shown, it is not given here.

Take CSTRVRRQL-NH2 [Nox2ds, CSTRVRRQL]: the “inhibition of Nox1-derived O2- production (in words)” value is given as “did not inhibit”. Further, under “10 μM peptide, 0 μM control 0.97±0.14”, the “rate of Nox1-derived O2- production, cytochrome c reduction” value is 0.765±0.19 nmol O2^−/min/10^7 cell equivalents.

Source of the values: patent US9585933B2, “Therapeutic use of peptide inhibitors of NADPH oxidase; aerosolization as a delivery mechanism” (University of Pittsburgh—Of the Commonwealth System of …, priority 2011, dated 2017).
